Results as given in PubChem BioAssay AID330 (DTP/NCI, 2004).
Several values for one entry are separate records, joined by “and”; a condition that tells them apart may be missing. Equal values may be shown once. Inconclusive results and toxic doses are left out. The calls were made as follows: active = survival T/C of 150% or more; inactive = T/C below 125% in these data.

System: P388 leukemia ip, CD2F1 mice, survival T/C
Experiment: NCI In Vivo Anticancer Drug Screen. Data for tumor model P388 Leukemia (intraperitoneal) in CD2F1 (CDF1) mice
Details: endpoint: median survival time, higher = longer survival
Method in brief: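 Mice carrying the transplanted tumor received test compound or vehicle. Survival was recorded in each group, and the value is the treated-group measurement divided by that of the vehicle-treated control group.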

[1] = dose: 12.5 mg/kg/injection, schedule: Q01DX009 (ip), vehicle: Klucel (hydroxypropylcellulose) (HPC)
[2] = dose: 25.0 mg/kg/injection, schedule: Q01DX009 (ip), vehicle: Klucel (hydroxypropylcellulose) (HPC)
[3] = dose: 50.0 mg/kg/injection, schedule: Q01DX009 (ip), vehicle: saline
[4] = dose: 100.0 mg/kg/injection, schedule: Q01DX009 (ip), vehicle: saline
[5] = dose: 50.0 mg/kg/injection, schedule: Q01DX009 (ip), vehicle: Klucel (hydroxypropylcellulose) (HPC)
[6] = dose: 100.0 mg/kg/injection, schedule: Q01DX009 (ip), vehicle: Klucel (hydroxypropylcellulose) (HPC)
[7] = dose: 25.0 mg/kg/injection, schedule: Q01DX009 (ip), vehicle: saline with Tween-80
[8] = dose: 50.0 mg/kg/injection, schedule: Q01DX009 (ip), vehicle: saline with Tween-80
[9] = dose: 50.0 mg/kg/injection, schedule: Q01DX005 (ip), vehicle: saline with Tween-80
[10] = dose: 100.0 mg/kg/injection, schedule: Q01DX005 (ip), vehicle: saline with Tween-80
[11] = dose: 200.0 mg/kg/injection, schedule: Q01DX005 (ip), vehicle: saline with Tween-80
[12] = dose: 25.0 mg/kg/injection, schedule: Q01DX005 (ip), vehicle: saline with Tween-80

Measured: T/C

COC(=O)C1c2ccccc2CC(=O)N1N (configuration not stated)
inactive: dose: 6.25 mg/kg/injection, schedule: Q01DX009 (ip), vehicle: Klucel (hydroxypropylcellulose) (HPC) 102 % of control | [1] 100 % of control | [2] 100 % of control

CC(C)(C)c1cc(C(=O)O)c(Br)c(C(=O)O)c1
inactive: [3] 97 % of control | [4] 102 % of control | dose: 200.0 mg/kg/injection, schedule: Q01DX009 (ip), vehicle: saline 100 % of control

CNc1ccc(Nc2cccc(C)c2)c2c1C(=O)c1ccccc1C2=O
inactive: [5] 100 % of control | [6] 91 % of control | dose: 200.0 mg/kg/injection, schedule: Q01DX009 (ip), vehicle: Klucel (hydroxypropylcellulose) (HPC) 113 % of control

BrCC[Se]c1ccccc1
inactive: [7] 103 % of control | [8] 112 % of control and 117 % of control | dose: 100.0 mg/kg/injection, schedule: Q01DX009 (ip), vehicle: saline with Tween-80 120 % of control and 124 % of control

Cc1ccc2[nH]c(N(C)C)nc2c2nc(Cl)nc1-2
inactive: dose: 8.25 mg/kg/injection, schedule: Q01DX005 (ip), vehicle: saline 108 % of control | dose: 16.5 mg/kg/injection, schedule: Q01DX005 (ip), vehicle: saline 103 % of control | dose: 33.0 mg/kg/injection, schedule: Q01DX005 (ip), vehicle: saline 100 % of control | dose: 66.0 mg/kg/injection, schedule: Q01DX005 (ip), vehicle: saline 97 % of control

Oc1ccc(-c2csc(Nc3ccccn3)n2)cc1O
inactive: [9] 98 % of control | [10] 106 % of control | [11] 104 % of control

CC1=C(N2CC2)C(=O)c2ccccc2C1=O
inactive: [5] 93 % of control | [6] 90 % of control

CCC(C)C(F)C(=O)O (configuration not stated)
inactive: [9] 98 % of control | [10] 88 % of control

O=[N+]([O-])c1ccc(N2CCOCC2)c2c1no[n+]2[O-]
inactive: dose: 8.0 mg/kg/injection, schedule: Q04DX003 (ip), vehicle: suspension in saline 98 % of control | dose: 16.0 mg/kg/injection, schedule: Q04DX003 (ip), vehicle: suspension in saline 105 % of control | dose: 32.0 mg/kg/injection, schedule: Q04DX003 (ip), vehicle: suspension in saline 99 % of control | dose: 64.0 mg/kg/injection, schedule: Q04DX003 (ip), vehicle: suspension in saline 123 % of control

COC(=O)c1c(C)cc(OC)c(C/C=C(\C)CCCc2coc(C=C(C)C)c2)c1OC
inactive: dose: 4.5 mg/kg/injection, schedule: Q01DX005 (ip), vehicle: Klucel (hydroxypropylcellulose) (HPC) 106 % of control | dose: 9.0 mg/kg/injection, schedule: Q01DX005 (ip), vehicle: Klucel (hydroxypropylcellulose) (HPC) 100 % of control | dose: 18.0 mg/kg/injection, schedule: Q01DX005 (ip), vehicle: Klucel (hydroxypropylcellulose) (HPC) 99 % of control | dose: 36.0 mg/kg/injection, schedule: Q01DX005 (ip), vehicle: Klucel (hydroxypropylcellulose) (HPC) 98 % of control | dose: 50.0 mg/kg/injection, schedule: Q01DX005 (ip), vehicle: Klucel (hydroxypropylcellulose) (HPC) 97 % of control | dose: 72.0 mg/kg/injection, schedule: Q01DX005 (ip), vehicle: Klucel (hydroxypropylcellulose) (HPC) 104 % of control | dose: 100.0 mg/kg/injection, schedule: Q01DX005 (ip), vehicle: Klucel (hydroxypropylcellulose) (HPC) 98 % of control | dose: 200.0 mg/kg/injection, schedule: Q01DX005 (ip), vehicle: Klucel (hydroxypropylcellulose) (HPC) 99 % of control

CCCCCCCCCCCC[N+](C)([O-])CCCCCC[N+](C)([O-])CCCCCCCCCCCC (configuration not stated)
inactive: [1] 96 % of control | [2] 95 % of control | [5] 100 % of control and 95 % of control

CCn1c(S)c(N=NC(=S)c2ccc3ccccc3n2)c2ccccc21
inactive: dose: 50.0 mg/kg/injection, schedule: Q04DX003 (ip), vehicle: saline 98 % of control | dose: 100.0 mg/kg/injection, schedule: Q04DX003 (ip), vehicle: saline 96 % of control | dose: 200.0 mg/kg/injection, schedule: Q04DX003 (ip), vehicle: saline 103 % of control

CN(C)CCNc1ccc(CO)c2sc3ccccc3c(=O)c12
inactive: [12] 93 % of control and 94 % of control | [9] 101 % of control and 114 % of control

CCOSN1CCOCC1
inactive: dose: 25.0 mg/kg/injection, schedule: Q04DX002 (ip), vehicle: saline 101 % of control | dose: 50.0 mg/kg/injection, schedule: Q04DX002 (ip), vehicle: saline 101 % of control | dose: 100.0 mg/kg/injection, schedule: Q04DX002 (ip), vehicle: saline 100 % of control and 93 % of control

COc1cc2c(cc1OC)-c1c3c(cc4c1[C@@H](C2)N(C)CC4)OCO3
inactive: dose: 12.5 mg/kg/injection, schedule: Q01DX009 (ip), vehicle: distilled water + Tween-80 107 % of control | dose: 12.5 mg/kg/injection, schedule: Q01DX009 (ip), vehicle: saline with Tween-80 106 % of control | dose: 25.0 mg/kg/injection, schedule: Q01DX009 (ip), vehicle: distilled water + Tween-80 107 % of control | [7] 100 % of control | dose: 50.0 mg/kg/injection, schedule: Q01DX009 (ip), vehicle: distilled water + Tween-80 116 % of control | [8] 102 % of control

c1ccc(-c2n[nH]c(-c3[nH]nc(-c4ccccc4)c3-c3ccccc3)c2-c2ccccc2)cc1
inactive: dose: 60.0 mg/kg/injection, schedule: Q01DX005 (ip), vehicle: saline with Tween-80 100 % of control | dose: 120.0 mg/kg/injection, schedule: Q01DX005 (ip), vehicle: saline with Tween-80 103 % of control | dose: 240.0 mg/kg/injection, schedule: Q01DX005 (ip), vehicle: saline with Tween-80 101 % of control

CCC(=O)OCC1OC(OC2c3cc4c(cc3C(c3cc(OC)c(OC)c(OC)c3)C3C(=O)OCC23)OCO4)C(OC(=O)CC)C(OC(=O)CC)C1OC(=O)CC (configuration not stated)
inactive: dose: 12.5 mg/kg/injection, schedule: Q01DX005 (ip), vehicle: saline with Tween-80 98 % of control | [12] 91 % of control | [9] 88 % of control and 89 % of control

C/C(=N\[N+](C)(C)C)c1ccccc1
inactive: dose: 12.5 mg/kg/injection, schedule: Q04DX003 (ip), vehicle: saline with Tween-80 100 % of control | dose: 25.0 mg/kg/injection, schedule: Q04DX003 (ip), vehicle: saline with Tween-80 100 % of control | dose: 50.0 mg/kg/injection, schedule: Q04DX003 (ip), vehicle: saline with Tween-80 102 % of control | dose: 100.0 mg/kg/injection, schedule: Q04DX003 (ip), vehicle: saline with Tween-80 100 % of control

CCC1OC2(C)C(O)C(/C=C/C=C/C=C/c3oc(=O)cc(OC)c3C)OC1(C)C2OC(C)=O (configuration not stated)
inactive: dose: 0.5 mg/kg/injection, schedule: Q01DX009 (ip), vehicle: Klucel (hydroxypropylcellulose) (HPC) 109 % of control | dose: 1.0 mg/kg/injection, schedule: Q01DX009 (ip), vehicle: Klucel (hydroxypropylcellulose) (HPC) 105 % of control | dose: 2.0 mg/kg/injection, schedule: Q01DX009 (ip), vehicle: Klucel (hydroxypropylcellulose) (HPC) 100 % of control

CC(C)CN1CCOCC1
inactive: dose: 25.0 mg/kg/injection, schedule: Q01DX009 (ip), vehicle: saline 100 % of control | [3] 95 % of control | [4] 104 % of control

Cc1cc(Cl)nc2c1ccn2C1OC(CO)C(O)C1O (configuration not stated)
inactive: dose: 32.0 mg/kg/injection, schedule: Q01DX001 (ip), vehicle: saline 100 % of control | dose: 64.0 mg/kg/injection, schedule: Q01DX001 (ip), vehicle: saline 100 % of control | dose: 128.0 mg/kg/injection, schedule: Q01DX001 (ip), vehicle: saline 102 % of control

CNS(=O)(=O)c1c([O-])on[n+]1-c1ccccc1
inactive: dose: 60.0 mg/kg/injection, schedule: Q01DX005 (ip), vehicle: Klucel (hydroxypropylcellulose) (HPC) 99 % of control | dose: 120.0 mg/kg/injection, schedule: Q01DX005 (ip), vehicle: Klucel (hydroxypropylcellulose) (HPC) 104 % of control | dose: 240.0 mg/kg/injection, schedule: Q01DX005 (ip), vehicle: Klucel (hydroxypropylcellulose) (HPC) 86 % of control

O=C(Nc1ccc(Cc2ccc(NC(=O)C(c3ccccc3)c3ccccc3)cc2)cc1)C(c1ccccc1)c1ccccc1
inactive: [9] 86 % of control | [10] 95 % of control | [11] 92 % of control

Cc1ccc(-c2csc(=NCCc3ccccc3)n2-c2ccc(C)cc2)cc1
inactive: dose: 12.5 mg/kg/injection, schedule: Q04DX002 (ip), vehicle: saline with Tween-80 97 % of control | dose: 25.0 mg/kg/injection, schedule: Q04DX002 (ip), vehicle: saline with Tween-80 99 % of control | dose: 50.0 mg/kg/injection, schedule: Q04DX002 (ip), vehicle: saline with Tween-80 88 % of control | dose: 100.0 mg/kg/injection, schedule: Q04DX002 (ip), vehicle: saline with Tween-80 88 % of control | dose: 400.0 mg/kg/injection, schedule: Q04DX002 (ip), vehicle: saline with Tween-80 93 % of control
